Holding throughout (type): cell-based, human
In one assay the test system is DU-145. Description: NCI single-dose GI%, prostate. The settings on record: DU-145, prostate; 10.0 μM in one dose.
For the next assay, the system named is SN12C. The assay is described as follows: NCI single-dose GI%, renal. The settings on record: 10.0 μM in one dose.
The subject of the next assay is RXF 393. The assay is described as follows: NCI single-dose GI%, renal. The settings on record: RXF 393, renal; 10.0 μM in one dose.
A further assay concerns A498. Description: NCI single-dose GI%, renal. The following applies: 10.0 μM in one dose.

Consider `CS(=O)(=O)c1ccc(C(=O)N2N=C(c3ccccc3)CC2c2ccccc2O)cc1` (stereo not shown) [Compound 18h, (5-(2-Hydroxyphenyl)-3-phenyl-4,5-dihydro-1H-pyrazol-1-yl)(4-(methylsulfonyl)phenyl)methanone], for which the GI% with DU-145 is 19%; with SN12C it was 17%; in the assay with RXF 393, 29%.
In turn, `Cc1ccc(C2=NN(C(=O)c3ccc(S(C)(=O)=O)cc3)C(c3ccc(C)cc3)C2)cc1` (stereo not shown) [Compound 18g, (3,5-Bis(4-tolyl)-4,5-dihydro-1H-pyrazol-1-yl)(4-(methylsulfonyl)phenyl)methanone] gave a GI% with A498 of 16%.

(Values after PMC11240878, “Synthesis, enzyme inhibition assay, and molecular modeling study of novel pyrazolines linked to 4-methylsulfonylphenyl scaffold: antitumor activity and cell cycle analysis” (RSC Advances, 2024).)
